Source: patent US20200407398A1, “Short Proline-Rich Lipopeptide Potentiates Minocycline and Rifampicin Against Multidrug-and Extensively Drug-Resistant Pseudomonas Aeruginosa” (priority 2018, published 2020)
Square brackets hold non-standard residues; d marks the D form. Peptide text beside a SMILES is read from it. * marks the point of attachment. Lauroyl = CCCCCCCCCCCC(=O)*

How the values were obtained:
[1] = tested on: P. aeruginosa PAO1 (wild-type); test: microbe, parasite or virus in culture
Experimental: We evaluated the activity of SPRLPs in combination with fifteen clinically-used antibiotics against P. aeruginosa. Antibiotics tested included fluoroquinolones (moxifloxacin, ciprofloxacin and levofloxacin), aminoglycosides (gentamicin, tobramycin and amikacin), cephalosporins (ceftazidime and cefotaxime), carbapenems (meropenem and doripenem), aztreonam, rifampicin, minocycline, colistin and fosfomycin. The SPRLPs were screened initially at a fixed concentration of 8 μg/mL (5 μM) in combination with antibiotics against wild-type P. aeruginosa PAO1. We assessed potentiation by at least a four-fold absolute MIC reduction of the antibiotic, after which synergism was further validated by a conventional checkerboard assay. A fractional inhibitory concentration (FIC) index of ≤0.5, 0.5<x≤4 or >4 was interpreted as synergistic, indifferent or antagonistic interaction, respectively (31). FIC index was obtained by adding the FIC values of the antibiotic and the SPRLP adjuvant. FIC of antibiotics was calculated by dividing the MIC of the antibiotic in the presence of the adjuvant by the MIC of the antibiotic alone. Similarly, the FIC of adjuvant was calculated via dividing the MIC of the adjuvant in the presence of the antibiotic by the MIC of the adjuvant alone.
Microbroth dilution susceptibility test following the Clinical and Laboratory Standards Institute (CLSI) guidelines (32) was performed to assess the in vitro antibacterial activity of SPRLPs. Overnight grown bacterial cultures were diluted in saline to achieve a 0.5 McFarland turbidity, followed by 1:50 dilution in Mueller-Hinton broth (MHB) for inoculation to a final concentration of 5×10^5 colony forming units/mL. The assay was done on a 96-well plate to which the agents of interest were 2-fold serially diluted in MHB and incubated with equal volumes of inoculum at 37° C. for 18 hours. MIC was determined as the lowest concentration to inhibit visible bacterial growth in form of turbidity, which was confirmed using EMax Plus microplate reader (Molecular Devices, USA) at a wavelength of 590 nm. The well containing MHB broth with or without bacterial cells was used as positive or negative control, respectively.
The assay was performed on a 96-well plate, to which the agents of interest was 2-fold serially diluted in working MHB. Prior to serial dilution, SPRLP was added to the working MHB media so that a fixed final concentration of 8 μg/mL (5 μM) SPRLP per well was achieved. To ensure that the assay was working, the MIC determination test of the studied antibiotic (without SPRLP) was included on the same plate. Similar MIC results between the assay comparator and an independent MIC determination test (on a different plate) ensured validity of the synergy test. Overnight grown bacterial cultures were diluted in saline to 0.5 McFarland turbidity, followed by 1:50 dilution in MHB (without SPRLP) and inoculation into each well to a final concentration of approximately 5×10^5 colony forming units/mL. Wells containing only MHB (without SPRLP) with or without bacterial cells were used as positive or negative control, respectively. The plate was then incubated at 37° C. for 18 hours and examined for visible turbidity, to which was confirmed using EMax Plus microplate reader (Molecular Devices, USA) at a wavelength of 590 nm. A 4-fold or more MIC reduction of antibiotic in the presence of 8 μg/mL (5 μM) SPRLP denoted a positive synergy result and was further validated by a checkerboard assay.
The assay was done on a 96-well plate as previously described (40, 41). The agent of interest was 2-fold serially diluted along the x-axis, while the adjuvant was 2-fold serially diluted along the y-axis to create a matrix in which each well consist of a combination of both at different concentrations.

[2] = tested on: K. pneumoniae ATCC 13883; format: cell-based
Outline: (§1)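 MICs were determined by CLSI broth microdilution in Mueller-Hinton broth, using 2-fold serial dilutions and an inoculum of 5×10^5 CFU/mL. Plates were incubated 18 hours at 37° C. The MIC was the lowest concentration preventing visible turbidity, confirmed by absorbance at 590 nm.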

[3] = tested on: P. aeruginosa CAN-ICU 62308 (gentamicin-resistant); format: cell-based
Outline: as §1

[4] = tested on: S. aureus ATCC 29213; format: cell-based
Outline: as §1

[5] = tested on: P. aeruginosa CANWARD-2011 96846 (gentamicin-, tobramycin-resistant); format: cell-based
Outline: as §1

[6] = tested on: methicillin-susceptible Staphylococcus epidermidis CANWARD-2008 81388; format: cell-based; conditions: methicillin-susceptible CANWARD-2008 81388
Outline: as §1

[7] = tested on: P. aeruginosa ATCC 27853; format: cell-based
Outline: as §1

[8] = tested on: S. maltophilia CAN-ICU 62584; format: cell-based
Outline: as §1

[9] = tested on: E. faecalis ATCC 29212; format: cell-based
Outline: as §1

[10] = tested on: methicillin-resistant S. epidermidis CAN-ICU 61589 (ceftazidime-resistant); format: cell-based; conditions: methicillin-resistant CAN-ICU 61589 (ceftazidime-resistant)
Outline: as §1

[11] = tested on: P. aeruginosa wild-type PAO1; format: cell-based
Outline: as §1

[12] = tested on: E. faecium ATCC 27270; format: cell-based
Outline: as §1

[13] = tested on: E. coli ATCC 25922; format: cell-based
Outline: as §1

[14] = tested on: E. coli CAN-ICU 61714 (gentamicin-resistant); format: cell-based
Outline: as §1

[15] = tested on: methicillin-resistant S. aureus ATCC 33592; format: cell-based
Outline: as §1

[16] = P. aeruginosa PAO1, degree of minocycline potentiation in the presence of 8 μg/mL (5 μM) lipopeptide
[17] = P. aeruginosa PAO1, degree of rifampicin potentiation in the presence of 8 μg/mL (5 μM) lipopeptide

Row | Compound | Absolute MIC MIN ([1]; P. aeruginosa PAO1, MIC of minocycline in the presence of 8 μg/mL (5 μM) lipopeptide) | Absolute MIC RMP ([1]; P. aeruginosa PAO1, MIC of rifampicin in the presence of 8 μg/mL (5 μM) lipopeptide) | MIC (agent alone) ([1]; P. aeruginosa PAO1, antibiotic or lipopeptide alone) | Potentiation [1, 16] | Potentiation [1, 17] | MIC (agent alone) ([1]; PAO1) | MIC [2] | MIC [3] | MIC [4] | MIC [5] | MIC [6] | MIC [7] | MIC [8] | MIC [9] | MIC [10] | MIC [11] | MIC [12] | MIC [13] | MIC [14] | MIC [15]
1 | CCCCCCCCCCCC(=O)N1CCC[C@@H]1C(=O)N[C@H](CCCNC(=N)N)C(=O)N1CCC[C@@H]1C(=O)N[C@H](CCCNC(=N)N)C(=O)N1CCC[C@@H]1C(=O)N[C@H](CCCNC(=N)N)C(=O)N1CCC[C@@H]1C(N)=O [C12-prp] (Lauroyl-[dP][dR][dP][dR][dP][dR][dP]-NH2) | 2 µg/mL | 1 µg/mL | >128 µg/mL | 4-fold | 8-fold |  |  |  |  |  |  |  |  |  |  |  |  |  |  | 
2 | CCCCCCCCCCCC(=O)N1CCC[C@H]1C(=O)N[C@@H](CCCNC(=N)N)C(=O)N1CCC[C@H]1C(=O)N[C@@H](CCCNC(=N)N)C(=O)N1CCC[C@H]1C(=O)N[C@@H](CCCNC(=N)N)C(=O)N1CCC[C@H]1C(N)=O [Compound C12-PRP, CH3(CH2)10CO-PRPRPRP-NH2] (Lauroyl-PRPRPRP-NH2) |  |  |  | 8-fold | 8-fold | 128 µg/mL | >128 µg/mL | >128 µg/mL | 128 µg/mL | >128 µg/mL | 32 µg/mL | >128 µg/mL | >128 µg/mL | >128 µg/mL | 128 µg/mL | 128 µg/mL | 128 µg/mL | >128 µg/mL | >128 µg/mL | >128 µg/mL
